This data set can be described thus: in vitro. It counts as in vitro ADME, human. From the text:
Table 4 lists the serum half-lives for several model compounds and two representative pharmaceutical agent-chemical modifier complexes using an in vitro assay system described in the Experimental section below. Of course, the serum half-lives will vary in vivo depending upon the age and health condition of the patient. Each complex comprises a model compound or a pharmaceutical agent, a spacer group, and a chemical modifier. Many of the model compounds utilize 4-nitrophenyl(ethanol, propanol, or cyclohexanol) or 4-nitrophenylethylamine as the "model" pharmaceutical agent. A more complete listing of serum half-lives may be found in the Experimental section below.
General procedure for serum hydrolysis of pharmaceutical agent-modifier complexes
Stock solutions (6 mM) of the pharmaceutical agent-modifier complexes were prepared in ethanol (by vortexing, sonication or warming at 37° C. if necessary). If required for solubility, a drop of dimethylsulfoxide, dimethylformamide or methanol may be added. (Acetonitrile cannot be used because it deactivates the serum enzymes.)
HPLC separation methods were established for each study by dilution of the above stock solution (6 μl) in acetonitrile (1 ml) to give a 36 μM solution. Samples (10 μl) were injected onto a Nucleosil 5C8 (250×4 mmID) and guard column (11×4 mm ID) and eluted with a mobile phase of approximately 65% HPLC grade water and 35% of a solution of 0.1% trifluoroacetic acid in acetonitrile, the exact proportions being adjusted in each case to give optimum separation and run times.
Freshly defrosted human serum (3 ml, Sigma) was warmed at 37° C. for five minutes and then 60 μl of the agent-modifier complex stock solution was added with vortexing. […] The aliquots were added to 800 μl of 2% zinc sulfate solution in a 1.5 ml disposable microcentrifuge tube, vortexed immediately and centrifuged at 14,000 RPM for 3 minutes. The supernatants (10 μl) were then injected onto the HPLC and peak areas were used to determine the % remaining. Serum blanks were prepared similarly by addition of serum to the zinc sulfate solution followed by centrifugation, and time=0 samples were also prepared by adding serum to the zinc sulfate solution followed by addition of the complex and separation by centrifugation. The time=0 samples, as well as the original stock solutions, were also used to study the stability of the complex in the absence of enzyme. Half-lives were calculated using the equation
by plotting time (x) vs. ln % remaining (y) to obtain the slope (m) and the y intercept (b).

Where [1] appears, read: human, serum, Table 5, human serum, 37° C., read-out: Serum Half-life (converted).
[2] abbreviates: human, serum, Table 4, human serum, 37° C., read-out: In vitro Half-Life (converted).

The values below come from patent US5607691A, “Compositions and methods for enhanced drug delivery” (priority 1995, dated 1997).

Where a name gives a salt, the structure may show the parent alone. Read-outs that look alike come from different tables or passages of the source.

For orientation: half-life means how long it takes for the measured level to halve.

As for `C[C@H]1O[C@@H](O[C@H]2[C@@H](O)C[C@H](O[C@H]3[C@@H](O)C[C@H](O[C@H]4CC[C@@]5(C)[C@H](CC[C@@H]6[C@@H]5C[C@@H](O)[C@]5(C)[C@@H](C7=CC(=O)OC7)CC[C@]65O)C4)O[C@@H]3C)O[C@@H]2C)C[C@H](O)[C@@H]1OC(=O)CCCOC(=O)CCC[N+](C)(C)C` [digoxin-4"'-4-(4-trimethylaminobutyroyloxy)butyrate, bromide salt], the half-life under setting [1] is 420 min.
On the same count and under the same terms, then `CC(CCCC(=O)OC1C(O)CC(OC2C(O)CC(OC3C(O)CC(OC4CCC5(C)C(CCC6C5CC(O)C5(C)C(C7=CC(=O)OC7)CCC65O)C4)OC3C)OC2C)OC1C)OC(=O)CCC[N+](C)(C)C` (stereo not drawn) [digoxin-4'"-[5-(4-trimethylaminobutyroyloxy)-hexanoate] bromide salt], with 840 min; and `CCOC(=O)OC[N+]1(CCCOc2ccc(F)cc2)CC[C@H](NC(=O)c2cc(Cl)c(N)cc2OC)[C@H](OC)C1` (relative stereo) [cisapride-N-ethyoxycarbonyloxymethylammonio, iodide salt], with 4.4 min.
As to `COc1cc(NC(=O)OCC[N+](C)(C)C)c(Cl)cc1C(=O)N[C@H]1CCN(CCCOc2ccc(F)cc2)C[C@H]1OC` (relative stereo) [cisapride choline carbamate, chloride salt], the half-life under setting [1] was 150 min.
`C[C@]12CC[C@H]3[C@@H](CCC4=CC(=O)CC[C@@]43C)[C@@H]1CC[C@@H]2OC(=O)OCC[N+](C)(C)C` [testosterone-17-choline carbonate, bromide salt]: the half-life under setting [1] is 29 min.
With `CCCCCCCCCCCC(=O)OCn1cc(F)c(=O)n(COC(=O)CCC[N+](C)(C)C)c1=O` [5-fluorouracil-1-(lauroyloxymethyl)-3-(4-trimethylammoniobutyroxyoxymethyl), iodide salt], under setting [1], the half-life is 420 min.
Same read-out and setting: then `COc1ccc2c(c1)c(CC(=O)OCCNC(=O)CCCCCN(C)C)c(C)n2C(=O)c1ccc(Cl)cc1` [indomethacin 2-[N-(6'-N',N'-dimethylamino)hexanamido]ethyl ester], with 816 min; and `C[C@H]1O[C@@H](O[C@H]2[C@@H](O)C[C@H](O[C@H]3[C@@H](O)C[C@H](O[C@H]4CC[C@@]5(C)[C@H](CC[C@@H]6[C@@H]5C[C@@H](OC(=O)[C@@H]5CCC[N+]5(C)C)[C@]5(C)[C@@H](C7=CC(=O)OC7)CC[C@]65O)C4)O[C@@H]3C)O[C@@H]2C)C[C@@H]2OC(=O)O[C@@H]21` [digoxin-12-stachydrine ester-3"',4"'-cyclic carbonate, chloride salt], with 294 min; and `C[C@]12CC[C@@H]3c4ccc(O)cc4CC[C@H]3[C@@H]1CC[C@@H]2OC(=O)NCC(=O)OCC[N+](C)(C)C` [N-[3-hydroxy-estra-1,3,5(10-trien-17β-yl)oxycarbonyl] glycine (choline iodide) ester], with 1.62 min.
In the case of `C[C@]12CC[C@@H]3c4ccc(O)cc4CC[C@H]3[C@@H]1CC[C@@H]2OC(=O)OCC[N+](C)(C)C` [3-hydroxy-17β-estra-trienyl N,N,N-trimethylaminoethyl carbonate, iodide salt], the half-life under setting [1] was 16 min.
`CCN(CC)C(=O)COC(=O)Cc1c(C)n(C(=O)c2ccc(Cl)cc2)c2ccc(OC)cc12` [indomethacin (N,N-diethylglycolamide) ester]: the half-life under setting [1] was 22.8 min.
Consider “2-(4-nitrophenyl)ethylamine choline chloride carbamate”, for which, where the note is “human, serum”, the “In vitro Half-Life” value was determined as 86 h and the “Serum Half-life” value turned out to be 86 h.
In the case of `COc1ccc2c(c1)c(CC(=O)OCCN(C)C(=O)CCCCC[N+](C)(C)C)c(C)n2C(=O)c1ccc(Cl)cc1` [indomethacin 2-[N-methyl-N-(6'-N',N',N'-trimethyl-amino)hexanamido]ethyl ester, iodide salt], the half-life under setting [1] was 204 min.
On to `C#CC[N+](C)(COC(C)=O)C(C)Cc1ccccc1` (stereo not drawn) [deprenyl-N-acetoxymethyl, bromide salt], for which the half-life under setting [1] is 4.2 min.
In the case of `CCOC(=O)C[C@H](C[N+](C)(C)C)OC(=O)O[C@H]1CC[C@H]2[C@@H]3CCC4=CC(=O)CC[C@]4(C)[C@H]3CC[C@]12C` [testosterone-17-(L-carnitineethyl ester) carbonate, iodide salt], the half-life under setting [1] was 49 min.
For the compound `COc1cc(N)c(Cl)cc1C(=O)N[C@H]1CC[N+](CCCOc2ccc(F)cc2)(COC(=O)CCCCC[N+](C)(C)C)C[C@H]1OC` (relative stereo) [cisapride-N-(6-trimethylammoniohexanoyloxymethylammonio), diiodide salt], the half-life under setting [1] is 60 min.
For `C#CC[N+](C)(COC(=O)CCC)C(C)Cc1ccccc1` (stereo not drawn) [deprenyl-N-butyroyloxymethyl, iodide salt], under setting [1], the half-life is 0.283 min.
As to `CC1OC(OC2C(O)CC(OC3C(O)CC(OC4CCC5(C)C(CCC6C5CC(O)C5(C)C(C7=CC(=O)OC7)CCC65O)C4)OC3C)OC2C)CC(O)C1OC(=O)C1CCC[N+]1(C)C` (stereo not drawn) [digoxin-4'"-stachydrine ester, chloride salt], the half-life under setting [1] was 5.1 min.
For `CC1OC(OC2CCC3(C)C(CCC4C3CC(OC(=O)CCC[N+](C)(C)C)C3(C)C(C5=CC(=O)OC5)CCC43O)C2)CC(O)C1OC1CC(O)C(OC2CC3OC(=O)OC3C(C)O2)C(C)O1` (stereo not drawn) [digoxin-12-(4-trimethylaminobutyrate)-3'",4'"-cyclic carbonate, bromide salt], the half-life was 5760 min under setting [1] and 5760 min (human, serum, untitled table of digoxin derivatives (position/substituent), assay not given, read-out: Half Life (converted)).
With `CC(=O)O[C@H](CC(=O)NCCc1ccc([N+](=O)[O-])cc1)C[N+](C)(C)C` [2-(4-nitrophenyl)ethylamine 3-(O-acetyl)-L-carnitine amide, chloride salt], the half-life is 1570 min under setting [2] and 1570 min under setting [1].
Turning to `C[n+]1cccc(C(=O)OC[C@H](NC(=O)OCc2ccccc2)C(=O)OCc2ccccc2)c1` [serine, L-isomer, HO-trigonellate ester, N-CBZ, benzyl ester], the half-life under setting [1] is 5 min.
As for `C[n+]1cccc(C(=O)OCCc2ccc([N+](=O)[O-])cc2)c1` [p-nitrophenylethyl alcohol trigonelline ester], the half-life under setting [1] was 28 min.
Same read-out and setting: then `COc1ccc2c(c1)c(CC(=O)OCCN(C)C(=O)CCCCCN(C)C)c(C)n2C(=O)c1ccc(Cl)cc1` [indomethacin 2-[N-methyl-N-(6'-N',N'-dimethylamino)hexanamido]ethyl ester], with 13.5 min; and `C[C@H]1O[C@@H](O[C@H]2[C@@H](O)C[C@H](O[C@H]3[C@@H](O)C[C@H](O[C@H]4CC[C@@]5(C)[C@H](CC[C@@H]6[C@@H]5C[C@@H](OC(=O)c5cccnc5)[C@]5(C)[C@@H](C7=CC(=O)OC7)CC[C@]65O)C4)O[C@@H]3C)O[C@@H]2C)C[C@@H]2OC(=O)O[C@@H]21` [digoxin-12-nicotinate ester-3"',4"'-cyclic carbonate], with 19900 min.
`COC(=O)CC(CN(C)C)OC(=O)Cc1c(C)n(C(=O)c2ccc(Cl)cc2)c2ccc(OC)cc12` (racemic) [3-O-(indomethacinoyl)-D,L-norcarnitine methyl ester]: the “Serum Half-life” value (Table 5, human serum, 37° C., listed as O-indomethacinyl-(D,L-norcarnitine methyl ester)) was found to be 4.3 h. In addition, the half-life under setting [1] is 257 min.
For `O=C(OCCc1ccc([N+](=O)[O-])cc1)c1ccc(CN2CCOCC2)cc1` [2-(4-nitrophenyl)ethanol 4-morpholinomethyl-benzoate], the half-life under setting [1] was 0.762 min.
Regarding `CC(CCCC(=O)OC1CC2C(CCC3CC(OC4CC(O)C(OC5CC(O)C(OC6CC7OC(=O)OC7C(C)O6)C(C)O5)C(C)O4)CCC32C)C2(O)CCC(C3=CC(=O)OC3)C12C)OC(=O)CCC[N+](C)(C)C` (stereo not drawn) [digoxin-12-[5-(4-trimethylaminobutyroyloxy)-hexanoate]-3'",4'"-cyclic carbonate], the half-life under setting [1] was 30200 min.
For the compound `C#CC[N+](C)(COC(=O)OCC)C(C)Cc1ccccc1` (stereo not drawn) [deprenyl-N-ethoxycarbonyloxymethyl, iodide salt], the half-life under setting [1] was 1.18 min.
Take `COc1ccc2c(c1)c(CC(=O)OCOC(=O)CCCCCNC(=O)C[C@H](C[N+](C)(C)C)OC(C)=O)c(C)n2C(=O)c1ccc(Cl)cc1` [indomethacin 6-(O-acetyl-L-carnitinamido)hexanoyloxymethyl ester, chloride salt]: the half-life under setting [1] was 30 min.
In the case of `COc1ccc2c(c1)c(CC(=O)OCC[N+](C)(C)CCO)c(C)n2C(=O)c1ccc(Cl)cc1` [indomethacin 2-(N-(2-hydroxyethyl)-N,N-dimethyl) aminoethyl ester, bromide salt], the half-life under setting [1] was 0.977 min.
For the compound `CC(=O)O[C@H](CC(=O)NCCCCCCOC(=O)OC(C)Cc1ccc([N+](=O)[O-])cc1)C[N+](C)(C)C` (stereo partly drawn) [1-(4-nitrophenyl)-2-propanol 6-(O-acetyl-L-carnitinamido)hexanol carbonate, chloride salt], the half-life was 3.5 min under setting [2] and 3.5 min under setting [1].
